Laboratory results reported in ChEMBL document CHEMBL1201862, “PubChem BioAssay data set” (2004).
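Grown in 96-well plates, cells were treated for 48 hours with each compound at five concentrations. Insufficient inhibition: endpoint recorded as highest concentration tested. GI50 = concentration required for 50% inhibition of growth.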 Calls of active or inactive are those of the source. No stated cut-off is given here; in the data, active = GI50 up to about 1.1 µM and inactive = higher.

What was measured:
Test in all cases: NCI-60 cell line screen, 48 h
EKVX = system: EKVX
OVCAR-4 = system: OVCAR-4
ACHN = system: ACHN
MOLT-4 = system: MOLT-4
SF-295 = system: SF-295
SK-MEL-28 = system: SK-MEL-28
U-251 = system: U-251
NCI-H522 = system: NCI-H522
SF-268 = system: SF-268
SW-620 = system: SW-620
OVCAR-3 = system: OVCAR-3
OVCAR-5 = system: OVCAR-5
SK-MEL-5 = system: SK-MEL-5
UO-31 = system: UO-31
HOP-62 = system: HOP-62
SF-539 = system: SF-539
UACC-62 = system: UACC-62

Measured: GI50

CNS(=O)(=O)NNS(=O)(=O)c1ccc2ccccc2c1
inactive: EKVX > 100 µM | OVCAR-4 > 100 µM | ACHN > 100 µM | MOLT-4 > 100 µM | SF-295 > 100 µM | SK-MEL-28 > 100 µM | U-251 > 100 µM | NCI-H522 > 100 µM | SF-268 > 100 µM | SW-620 > 100 µM | OVCAR-3 > 100 µM | OVCAR-5 > 100 µM | SK-MEL-5 > 100 µM | UO-31 > 100 µM | HOP-62 > 100 µM | SF-539 > 100 µM | UACC-62 > 100 µM

C[C@H](OCc1ccccc1)C(=O)N1CCS(=O)(=O)N2CCC[C@H]2C1=O
inactive: EKVX > 100 µM | OVCAR-4 > 100 µM | ACHN > 100 µM | MOLT-4 > 100 µM | SF-295 > 100 µM | SK-MEL-28 > 100 µM | U-251 > 100 µM | NCI-H522 > 100 µM | SF-268 > 100 µM | SW-620 > 100 µM | OVCAR-3 > 100 µM | OVCAR-5 > 100 µM | SK-MEL-5 > 100 µM | UO-31 > 100 µM | HOP-62 > 100 µM | SF-539 > 100 µM | UACC-62 > 100 µM

CC[C@H](C)C(=O)O[C@H]1C[C@@H](C)C=C2C=C[C@H](C)[C@H](CC[C@@H]3C[C@@H](O)CC(=O)O3)[C@H]21 [LOVASTATIN]
inactive: EKVX > 30 µM | OVCAR-4 > 30 µM | ACHN 1.76 µM | MOLT-4 26.8 µM | SK-MEL-28 25 µM | SW-620 7.36 µM | OVCAR-3 > 30 µM | OVCAR-5 > 30 µM | SK-MEL-5 6.7 µM | UO-31 6.27 µM | HOP-62 13.1 µM | UACC-62 1.53 µM

O=C1NC(c2ccccc2)(c2ccccc2)C(=O)N1CCCCCCN1C(=O)NC(c2ccccc2)(c2ccccc2)C1=O
inactive: EKVX 39.4 µM | OVCAR-4 4.52 µM | ACHN 33.3 µM | MOLT-4 > 100 µM | SF-295 13.2 µM | SK-MEL-28 11 µM | U-251 27.7 µM | NCI-H522 11.9 µM | SF-268 21.5 µM | SW-620 69.3 µM | OVCAR-3 83.2 µM | OVCAR-5 > 100 µM | SK-MEL-5 19.9 µM | UO-31 > 100 µM | HOP-62 24.8 µM | SF-539 18.6 µM | UACC-62 57.7 µM

Cc1cc(O)nc(NNC(C#N)c2ccccc2O)n1 (stereo not given)
inactive: OVCAR-4 15.5 µM | ACHN 16.6 µM | MOLT-4 24.6 µM | SF-295 38.4 µM | SK-MEL-28 36.3 µM | U-251 15.2 µM | NCI-H522 41.4 µM | SF-268 13 µM | SW-620 44.6 µM | OVCAR-3 10.8 µM | OVCAR-5 58.6 µM | SK-MEL-5 19.9 µM | UO-31 18.5 µM | HOP-62 31.3 µM | SF-539 10.4 µM | UACC-62 21.7 µM

c1ccc(-c2nnc3nn4c(-c5ccccc5)cnnc4c3c2-c2ccccc2)cc1
inactive: EKVX 19.7 µM | OVCAR-4 12.9 µM | ACHN 55.6 µM | MOLT-4 > 100 µM | SF-295 74 µM | SK-MEL-28 64 µM | U-251 32.6 µM | SW-620 > 100 µM | OVCAR-3 26.4 µM | OVCAR-5 > 100 µM | SK-MEL-5 67.1 µM | UO-31 23.2 µM | SF-539 26.3 µM | UACC-62 32.1 µM

COC[C@@H](/N=C/N1CCc2cc(OC)c(OC)cc2C1)C(C)(C)C
inactive: EKVX > 100 µM | OVCAR-4 > 100 µM | ACHN > 100 µM | MOLT-4 > 100 µM | SF-295 > 100 µM | SK-MEL-28 > 100 µM | U-251 > 100 µM | NCI-H522 > 100 µM | SF-268 > 100 µM | SW-620 > 100 µM | OVCAR-3 > 100 µM | SK-MEL-5 > 100 µM | UO-31 > 100 µM | HOP-62 > 100 µM | SF-539 > 100 µM | UACC-62 > 100 µM

O=C(N/C(=C\c1cccc([N+](=O)[O-])c1)c1nc2cc([N+](=O)[O-])ccc2[nH]1)c1ccccc1
inactive: EKVX 51.9 µM | OVCAR-4 19.5 µM | ACHN 28.4 µM | MOLT-4 12.2 µM | SF-295 40.4 µM | SK-MEL-28 36.9 µM | U-251 40.7 µM | NCI-H522 18.3 µM | SF-268 19.7 µM | SW-620 35.1 µM | OVCAR-3 40.6 µM | OVCAR-5 73.3 µM | SK-MEL-5 20.7 µM | UO-31 10.9 µM | SF-539 29.4 µM | UACC-62 19.7 µM

CC(C)C(Nc1c2ccccc2nc2ccccc12)C(=O)O (stereo not given)
inactive: EKVX 67.8 µM | OVCAR-4 20.7 µM | ACHN 49.2 µM | MOLT-4 38.7 µM | SF-295 > 100 µM | SK-MEL-28 > 100 µM | U-251 > 100 µM | NCI-H522 > 100 µM | SF-268 > 100 µM | SW-620 > 100 µM | OVCAR-3 94.2 µM | OVCAR-5 > 100 µM | UO-31 29.1 µM | SF-539 > 100 µM | UACC-62 > 100 µM
